Assay results from patent US20240298601A1, “SESAME PLANTS RESISTANT TO ACETOLACTATE SYNTHASE-INHIBITING HERBICIDES, COMPOSITIONS AND METHODS FOR PRODUCING SAME” (Yissum Research Development Company of The Hebrew …, priority 2021, published 2024).

How the values were obtained:
[1] = test system: wild type (S-416) sesame plants; assay: Herbicides dose-response assay (post-emergence, pots), wild type; assay type: in vivo, Sesamum indicum; details: for ED50 WT: herbicide rate reducing plant growth (shoot DW) by 50%, 16 DAT, sprayed at two true leaves, n=5; for reduction in shoot DW, WT / reduction in shoot length, WT: under the recommended dose; for response of WT plants in dose-response assay: increasing doses
[2] = test system: SiRM plants (mutant SiALS Ala188Val); details: for ED50 SiRM: herbicide rate reducing plant growth (shoot DW) by 50%, 16 DAT, n=5, calculated from fitted curve, for Imazamox above the tested rates; for RI (resistance index): resistance/susceptible ratio of the ED50 (SiRM vs WT); for reduction in shoot DW, SiRM / reduction in shoot length, SiRM: under the recommended dose; for response of SiRM plants in dose-response assay: increasing doses

COc1ncc(F)c2nc(S(=O)(=O)Nc3c(F)cccc3F)nn12 [Florasulam, N-(2,6-difluorophenyl)-8-fluoro-5-methoxy-[1,2,4]triazolo[1,5-c]pyrimidine-2-sulfonamide]
ED50 WT [1]: 31 g a.i. ha^−1
ED50 SiRM [2]: 62 g a.i. ha^−1
RI (resistance index) [2]: 2

COc1cc(OC)nc(NC(=O)NS(=O)(=O)c2cc(NC=O)ccc2C(=O)N(C)C)n1 [Foramsulfuron, 2-[(4,6-dimethoxypyrimidin-2-yl)carbamoylsulfamoyl]-4-formamido-N,N-dimethylbenzamide]
ED50 WT [1]: 41 g a.i. ha^−1
reduction in shoot DW, WT [1]: 25%
reduction in shoot length, WT [1]: 64%
ED50 SiRM [2]: 165 g a.i. ha^−1
RI (resistance index) [2]: 3.95
reduction in shoot DW, SiRM [2]: 8%
reduction in shoot length, SiRM [2]: 58%

CCc1cnc(C2=NC(C)(C(C)C)C(=O)N2)c(C(=O)O)c1 (stereo not shown) [Imazethapyr, 5-ethyl-2-(4-methyl-5-oxo-4-propan-2-yl-1H-imidazol-2-yl) pyridine-3-carboxylic acid]
effect on WT plants at field recommended dosage ([1]; 20 g a.i. h^−1): deadly for the plants
ED50 WT [1]: 3.7 g a.i. ha^−1
state of SiRM plants at the highest dosage ([2]; 160 g a.i. h^−1): viable and fully recovered
ED50 SiRM [2]: 161 g a.i. ha^−1
dose up to which SiRM plants were not affected ([2]; post-emergence dose-response): ≤ 80 g a.i. h^−1
RI (resistance index) [2]: 48

CCCOc1nn(C(=O)NS(=O)(=O)c2ccccc2C(=O)OC)c(=O)n1C [Propoxycarbazone, methyl 2-[(4-methyl-5-oxo-3-propoxy-1,2,4-triazole-1-carbonyl)sulfamoyl]benzoate]
ED50 WT [1]: 12 g a.i. ha^−1
response of WT plants in dose-response assay [1]: severe response of the WT plants already at a low dose of ⅛X
ED50 SiRM [2]: 96 g a.i. ha^−1
response of SiRM plants in dose-response assay [2]: able to maintain growth (and develop flowering buds) up to the recommended dose
RI (resistance index) [2]: 8

COc1cc(OC)nc(Sc2cccc(Cl)c2C(=O)O)n1 [Pyrithiobac sodium, sodium;2-chloro-6-(4,6-dimethoxypyrimidin-2-yl)sulfanylbenzoate]
ED50 WT [1]: 9.8 g a.i. ha^−1
response of WT plants in dose-response assay [1]: lethal for both lines
ED50 SiRM [2]: 202 g a.i. ha^−1
response of SiRM plants in dose-response assay [2]: able to survive up to the recommended dose
RI (resistance index) [2]: 20.5
reduction in shoot length, SiRM [2]: 66%

COc1cc(OC)nc(NC(=O)NS(=O)(=O)c2ncccc2OCC(F)(F)F)n1 [Trifloxysulfuron, 1-(4,6-dimethoxypyrimidin-2-yl)-3-[3-(2,2,2-trifluoroethoxy)pyridin-2-yl]sulfonylurea]
ED50 WT [1]: 33 g a.i. ha^−1
reduction in shoot DW, WT [1]: 63%
reduction in shoot length, WT [1]: 74%
ED50 SiRM [2]: 69 g a.i. ha^−1
RI (resistance index) [2]: 2
reduction in shoot DW, SiRM [2]: 18%
reduction in shoot length, SiRM [2]: 7%
